This note sets out measurements from patent US10822317B2, “Methods and compositions for wound healing” (QBiotics Limited, priority 2013, dated 2020).

Experiment [1] has as its system human neonatal fibroblasts. The experiment in a line: Scratch closure, human neonatal fibroblasts, Method 3 (IncuCyte). The format is cell-based. How it is done: (§1) The ability of early. passage neonatal foreskin fibroblasts (NFF) cultured in RPMI 1640-10% foetal calf serum to migrate across a scratch wound made in a confluent monolayer following treatment with purified compounds or plant extracts was determined using one or more of the following three methods.
Cells were seeded and treated in 96-well plates as in Method 2 (5 replicate wells per dilution), except that the scratches were made in one action with a tool having 96, 1 mm thick teflon coated pins (Essen Bioscience Woundmaker). The plate was then placed in a 37° C., 5% CO2 humidified atmosphere in an IncuCyte FLR instrument programmed to photograph each well under phase contrast at 3 hr intervals for 42 hours. The software determined the initial scratch boundaries and their rate of closure. Accelerated wound closure was considered to be significant if the initial rate of closure was >10% of the untreated controls.

The test system of experiment [2] is human neonatal fibroblasts. Description: Scratch closure, human neonatal fibroblasts, Method 2. The class given is cell-based. As for the experimental part:
as §1
Cells were seeded in 6 mm wells (96-well plates) or 16 mm (24-well plates), with 2 to 6 replicate wells/dilution, and treated as in Method 1. Immediately after treatment, the scratch edges were outlined on the underside of the well with a fine point felt pen. After fixing and staining, migration was assessed under the microscope with the aid of a graticule, scoring migration as 0, 25, 50, 75 or 100% (total closure) of the initial width. Accelerated wound closure was considered to be significant if mean quartile of replicates was […] that of untreated controls (p<0.05, t-test). In addition, “wound” areas were created by seeding cells in the presence of 3 mm stainless steel pins (96-well plate), or by inserting flat-edged Teflon rings. These devices were removed after overnight incubation of the NFF cells.

The subject of experiment [3] is human peripheral blood monocytes. The experiment in a line: Differentiation of monocytes into macrophages. The format is cell-based. The settings on record: 10-fold dilutions; 4 days; adherence and morphology. How it is done:
To determine potential effects of Compound 1 and fifteen other epoxy-tigliane compounds in the array on monocyte differentiation, human peripheral blood mononuclear cells (PBMCs) were isolated by Ficoll-Paque sedimentation of heparinised blood from a human donor, and plated at 100,000 cells/well in RPMI-1640 10% FCS. Duplicate wells were treated with 10-fold dilutions of the compounds and incubated at 37° C. for 4 days. The wells were scored visually for cell attachment and morphology, then washed twice with PBS, stained with sulfurhodamine and the incorporate stain quantitated in an ELISA reader. The plates were then washed with water and stained with 1% crystal violet in methanol for photography and scoring of adherent cell morphology.

The next experiment relates to mouse skin. The experiment in a line: Acute inflammatory response in mouse skin. The settings on record: male nude mice, s.c. 50 μL of 100 μg/mL; for scarring of the healed site: 14 days; for diameter of affected area of skin: by 24 hr. The class given is in vivo. As for the experimental part:
Male nude mice were injected subcutaneously on each flank with 50 μL of solutions of 100 μg/mL of Compounds 1, 2, 5 and 42 respectively in 20% propylene glycol. Each site reddened within 4 hr and by 24 hr the affected area covered approximately 1 cm diameter of skin.

Experiment [4] concerns human peripheral blood mononuclear cells (PBMCs). The experiment in a line: Cytokine production by PBMCs (Cytometric Bead Array). The class given is cell-based. The settings on record: 24 hr, ± standard deviation. From the text:
Specific cytokines play critical roles in wound healing processes, and agents that modulate these substances may be useful in treating wounds and/or improving the cosmetic outcomes of healing (e.g. reduced scarring). The effects of Compounds 1, 2, 5 and 42 on regulation of four cytokines (IL-1β, IL-6, IL-8 and TNFα) known to be critical in early stages of the wound healing process were investigated in human peripheral blood mononuclear cells (PBMCs).
PBMCs were isolated by Ficoll-Paque sedimentation of heparinised blood acquired from both a person (Donor 1) and (Donor 2) human donor. All cells were cultured in 10% FCS, RPMI as detailed previously.
PBMCs were seeded at a density of 1.5×10^5 cells per well in 10% FCS, RPMI. Stimulation of these cells with the four compounds was performed at four concentrations (0 ng/mL, 3 ng/mL, 30 ng/mL, 300 ng/mL) in duplicate for 24 h in a humidified incubator at 37° C., 5% CO2. Media samples were taken from each of the required wells and frozen at −80° C. until use.
Cytometric Bead Array (CBA) assays were used to measure the results. CBA assays provide a method for capturing a soluble analyte or set of analytes using antibody coated beads of known sizes and fluorescence. Detection is then performed using another fluorescently labelled secondary antibody to form a sandwich complex. Each media sample was assayed for the presence of soluble […], IL-6, IL-8, IL-10, IL-12p70 and TNFα using a BD (Becton Dickinson) CBA Human Inflammatory Cytokine Detection Kit according to manufacturers' instructions. Mean fluorescence intensity values from each sample were compared against a standard curve to determine cytokine concentrations (pg/mL).

Experiment [5] concerns human neonatal fibroblasts. The experiment in a line: Matrigel invasion assay for migratory ability. The format is cell-based. The settings on record: 30 ng/mL; 24 hrs; fibroblasts starved 2 days, 1% foetal calf serum; ± standard deviation, two replicate experiments. From the text:
Matrigel invasion chambers provide cells with the conditions that allow assessment of their invasive property in vitro. The Matrigel invasion chambers consists of a cell culture companion plate with cell culture inserts containing an 8 micron pore size PET membrane with a thin layer of Matrigel Basement Membrane Matrix. The Matrigel matrix serves as a reconstituted basement membrane in vitro. The layer occludes the pores of the membrane, blocking non-invasive cells from migrating through the membrane. In contrast, invasive cells are able to detach themselves from and invade through the Matrigel matrix and the 8 micron membrane pores. The membrane may be processed for light and electron microscopy and can be easily removed after staining.
The chambers were used according to the manufacturer's instructions, as described below in two studies, to assess the effects of Compounds 1, 2, 5 and 42 on migration of human neonatal fibroblasts. The first study assessed effects of three concentrations (0, 10 and 30 ng/mL) of Compound 1 on neonatal fibroblasts in wells containing media with 10% foetal calf serum. The second study used two concentrations (0 and 30 ng/mL) for each of Compounds 1, 2, 5 and 42 to examine effects on migration of neonatal fibroblasts starved for 2 days prior to treatment and then transferred to media with 1% foetal calf serum.
The package containing the chambers was removed from −20° C. storage and allowed to come to room temperature. Warm (37° C.) bicarbonate based culture medium was added to the interior of the inserts (500 μL) and bottom of wells (750 μL). The chambers containing the Matrigel were allowed to rehydrate for 2 hours in humidified tissue culture incubator, 37° C., 5% CO2 atmosphere. After rehydration, the medium was carefully removed by aspiration without disturbing the layer of Matrigel™ Matrix on the membrane.
Cells were harvested, and resuspended at 20,000 cells per mL. A total of 250 μL of the cell suspension was placed into the interior of the insert (5,000 cells). An extra 250 μL media containing the respective Compounds was then added to the interior of the insert to give the desired final concentrations for each of the two studies. A total of 750 μL of media containing appropriate concentrations of each compound in each treatment were placed in the well under the appropriate insert. The Matrigel chambers were then incubated for 24 hours in a humidified tissue culture incubator, at 37° C., 5% CO2 atmosphere.
Non-invading cells were removed from the upper surface of the membrane by “scrubbing”. A cotton tipped swab was dipped into the insert after removal of the media, and firm pressure applied while the tip was moved over the membrane surface. The scrubbing was repeated with a second swab moistened with PBS. Cells that had invaded to the external surface of the insert were then fixed by placing in […] of 100% methanol for at least 5 mins. Inserts were then transferred to a companion plate containing 500 μL of 0.1% crystal violet in methanol, and stained for at least 15 mins. Inserts were destained by passage through 3 companion plates containing 500 μL water, before being air dried.
The following day, the membrane was removed from the insert housing by inverting the insert and inserting the tip of a sharp scalpel blade through the membrane at the edge adjacent to the housing wall. The insert housing was rotated against the stationary blade and the membrane was released. […]

In the case of “12,13-dibutanoyl-6,7-epoxy-4,5,9,12,13,20-hexahydroxy-1-tigliaen-3-one [Compound 27]”, the “% closure compared to control” value in experiment [1] (2000 ng/mL) is recorded as 130%; in experiment [2] (1000 ng/mL) it was 158%.

As to “12,13-di-hexanoyl-6,7-epoxy-4,5,9,12,13,20-hexahydroxy-1-tigliaen-3-one [Compound 42]”, the “Differentiation endpoint (endpoint concentration in dilution series for induction of macrophage phenotype)” value (shortened to “Differentiation endpoint”) in experiment [3] came to 1 ng/mL. The “scarring of the healed site” value in the experiment on mouse skin is recorded as “minimal scarring”. In addition, the “diameter of affected area of skin” value in the experiment on mouse skin is on record as “approximately 1 cm”. In addition, the IL-1β level was 2.6 ± 0.6 pg/mL in experiment [4] (Donor 1, 3 ng/mL); 16.8 ± 1.2 pg/mL in experiment [4] (Donor 1, 30 ng/mL); 41.3 ± 1.2 pg/mL in experiment [4] (Donor 1, 300 ng/mL); 21.7 ± 7.5 pg/mL in experiment [4] (Donor 2, 3 ng/mL); 71.2 ± 6.0 pg/mL in experiment [4] (Donor 2, 30 ng/mL); 137.8 ± 10.9 pg/mL in experiment [4] (Donor 2, 300 ng/mL). Also, the IL-6 level in experiment [4] (Donor 1, 3 ng/mL) came out at 8.1 ± 6.4 pg/mL; in experiment [4] (Donor 1, 30 ng/mL) it was 32.1 ± 6.7 pg/mL; in experiment [4] (Donor 1, 300 ng/mL), 71 ± 4.6 pg/mL; in experiment [4] (Donor 2, 3 ng/mL), 30.4 ± 11.8 pg/mL; in experiment [4] (Donor 2, 30 ng/mL), 23.6 ± 0.8 pg/mL; in experiment [4] (Donor 2, 300 ng/mL), 69.3 ± 1.8 pg/mL. For the same compound, the IL-8 level in experiment [4] (Donor 1, 3 ng/mL) was 3013 ± 377 pg/mL; in experiment [4] (Donor 1, 30 ng/mL) it was 16389 ± 884 pg/mL; in experiment [4] (Donor 1, 300 ng/mL) it was 17425 ± 680 pg/mL; in experiment [4] (Donor 2, 3 ng/mL), 7885 ± 2516 pg/mL; in experiment [4] (Donor 2, 30 ng/mL), 28176 ± 37 pg/mL; in experiment [4] (Donor 2, 300 ng/mL), 32925 ± 552 pg/mL. Besides, the TNFα level stood at 45.8 ± 55.2 pg/mL in experiment [4] (Donor 1, 3 ng/mL); 271.9 ± 22.4 pg/mL in experiment [4] (Donor 1, 30 ng/mL); 267.5 ± 11.9 pg/mL in experiment [4] (Donor 1, 300 ng/mL); 109.5 ± 29.3 pg/mL in experiment [4] (Donor 2, 3 ng/mL); 354.2 ± 6.3 pg/mL in experiment [4] (Donor 2, 30 ng/mL); 631.6 ± 16.9 pg/mL in experiment [4] (Donor 2, 300 ng/mL). For the same compound, in experiment [5], the “Cell count as % of control (Control = no compounds added)” value came to 350 ± 101%.

For the compound `CCCCCC(=O)OC1C(C)C2(O)C(C3OC3(CO)C(O)C3(O)C(=O)C(C)=CC32)C2C(C)(C)C12OC(=O)C(C)CC` (centres unmarked) [Compound 5, 12-hexanoyl-13-(2-methylbutanoyl)-6,7-epoxy-4,5,9,12,13,20-hexahydroxy-1-tigliaen-3-one], the “% closure compared to control” value in experiment [1] (30 ng/mL) came to 209%; in experiment [1] (200 ng/mL), 300%. In addition, in experiment [3], the “Differentiation endpoint” value came out at 1 ng/mL. Besides, the “scarring of the healed site” value with mouse skin is given as “minimal scarring”. For the same compound, the “diameter of affected area of skin” value in the experiment on mouse skin is listed as “approximately 1 cm”. In addition, the IL-1β level in experiment [4] (Donor 1, 3 ng/mL) is 2.1 ± 0.1 pg/mL; in experiment [4] (Donor 1, 30 ng/mL) it was 15.7 ± 0.9 pg/mL; in experiment [4] (Donor 1, 300 ng/mL), 44 ± 1.6 pg/mL; in experiment [4] (Donor 2, 3 ng/mL), 8.1 ± 2.8 pg/mL; in experiment [4] (Donor 2, 30 ng/mL), 43.6 ± 6.1 pg/mL; in experiment [4] (Donor 2, 300 ng/mL), 114.9 ± 2.4 pg/mL. In addition, the IL-6 level in experiment [4] (Donor 1, 3 ng/mL) came out at 12.4 ± 0.2 pg/mL; in experiment [4] (Donor 1, 30 ng/mL), 33.6 ± 0.6 pg/mL; in experiment [4] (Donor 1, 300 ng/mL), 77.5 ± 9.1 pg/mL; in experiment [4] (Donor 2, 3 ng/mL), 14.9 ± 1.1 pg/mL; in experiment [4] (Donor 2, 30 ng/mL), 12.5 ± 1.2 pg/mL; in experiment [4] (Donor 2, 300 ng/mL), 51.9 ± 1.3 pg/mL. The IL-8 level in experiment [4] (Donor 1, 3 ng/mL) was 4924 ± 366 pg/mL; in experiment [4] (Donor 1, 30 ng/mL) it was 17190 ± 55 pg/mL; in experiment [4] (Donor 1, 300 ng/mL), 17275 ± 40 pg/mL; in experiment [4] (Donor 2, 3 ng/mL), 4765 ± 999 pg/mL; in experiment [4] (Donor 2, 30 ng/mL), 26288 ± 260 pg/mL; in experiment [4] (Donor 2, 300 ng/mL) it was 33870 ± 2532 pg/mL. Also, the TNFα level in experiment [4] (Donor 1, 3 ng/mL) came to 85.8 ± 8.4 pg/mL; in experiment [4] (Donor 1, 30 ng/mL), 289.9 ± 18.6 pg/mL; in experiment [4] (Donor 1, 300 ng/mL), 306.4 ± 9.0 pg/mL; in experiment [4] (Donor 2, 3 ng/mL) it was 53.9 ± 9.0 pg/mL; in experiment [4] (Donor 2, 30 ng/mL) it was 223 ± 11.2 pg/mL; in experiment [4] (Donor 2, 300 ng/mL) it was 620.9 ± 66.5 pg/mL. Further, the “Cell count as % of control (Control = no compounds added)” value in experiment [5] is on record as 218 ± 21%.

Turning to `CCCC(=O)OC1C(C)C2(O)C(C3OC3(CO)C(O)C3(O)C(=O)C(C)=CC32)C2C(C)(C)C12OC(=O)C(C)CC` (centres unmarked) [Compound 8, 12-butanoyl-13-(2-methylbutanoyl)-6,7-epoxy-4,5,9,12,13,20-hexahydroxy-1-tigliaen-3-one], in experiment [3], the “Differentiation endpoint” value came to 10 ng/mL. Also, the “% closure compared to control” value in experiment [2] (200 ng/mL) turned out to be 190%.
